Laboratory results reported in patent EP2842965A1, “Neuromedin U analogs comprising serum albumin binding amino acid residue” (Gubra ApS, priority 2013, dated 2015).
pEC50: −log10 of the molar value. Starred links: 1 amine or outer side, 2 acyl side, 3 side chain; linkers in the order of their positions; H or OH if unused. Residues, ends and D or L forms follow the SMILES beside them. Groups on a side chain read outwards from the residue. *: point of attachment. γGlu = O=C(O)[C@H](CCC(=O)[*:2])N[*:1]; Palmitoyl = CCCCCCCCCCCCCCCC(=O)*

Target: T1, Neuromedin U receptor 1 (NMUR1) (Homo sapiens, UniProt Q9HB89)
T1 construct: expressed in transfected cells; host or cells: HEK293 cells, transient calcium phosphate transfection
T1 sequence (Q9HB89 1-426): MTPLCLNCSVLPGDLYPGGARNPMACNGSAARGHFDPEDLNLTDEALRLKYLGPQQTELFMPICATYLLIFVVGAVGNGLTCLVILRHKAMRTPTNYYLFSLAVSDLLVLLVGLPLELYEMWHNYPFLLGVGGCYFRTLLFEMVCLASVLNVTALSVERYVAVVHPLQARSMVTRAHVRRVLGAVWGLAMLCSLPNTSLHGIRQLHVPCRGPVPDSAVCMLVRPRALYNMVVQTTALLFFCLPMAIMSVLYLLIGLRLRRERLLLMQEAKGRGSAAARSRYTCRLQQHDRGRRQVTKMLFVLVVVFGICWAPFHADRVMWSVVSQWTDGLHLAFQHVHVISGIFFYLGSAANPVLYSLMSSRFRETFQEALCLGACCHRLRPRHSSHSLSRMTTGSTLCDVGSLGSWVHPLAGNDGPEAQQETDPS
Assay: Functional assay (IP3 SPA-ysi assay) in HEK293 cells transfected with NMUR1
Type: cell-based
Conditions: HEK293 cells transiently transfected with NMUR1; head says cAMP, method describes IP3 SPA readout
Description: All compounds were dissolved in dimethyl sulfoxide (DMSO), and then water was added (total DMSO conc. was 80%). The stock concentration was 1 mM for all the compounds. Stocks were alliquoted and frozen -20°C.
The day before each assay a new standard row was prepared by dilution of the stock solution in assay buffer (1 mM acetic acid + 0.1% bovine serum albumin (BSA)). The following concentrations were prepared (depending on the ligand potency): 10^-5, 10^-6, 10^-7, 10^-7.5, 10^-8, 10^-8.5, 10^-9, 10^-10, 10^-11, 10^-12 M.
Cell cultures: The HEK293 cells are grown in (DMEM31966 glutamax supplemented with 10% FBS (fetal bovine serum) and 1% penicillin G and streptomycin) and incubated at 37°C with 10% CO2 in a humidified atmosphere. The cells were split as follows. HEK293 cells approximately 80% confluent was used. The cells were removed from the bottom of the bottle by removing the media (DMEM31966 glutamax supplemented with 10% FBS and 1% penicillin G and streptomycin), rinsed with 5 mL phosphate buffered saline (PBS) and shaken gently. […]
IP3 SPA-ysi assay: The media was removed and the plates were washed with 200 µL of Hank's balanced salt solution (HBSS) (Gibco, Life Technologies). […] The plates were sealed and shaken on high speed for 30 min, then centrifuged for 5 min at 1500 rpm and counted with 8 hours delay in the top counter. […]

pEC50: 7.29
SMILES: CCCCCCCCCCCCCCCC(=O)N[C@@H](CCC(=O)NCCCC[C@H](NC(=O)[C@H](CCC(=O)O)NC(=O)[C@H](CC(=O)O)NC(=O)[C@@H](NC(=O)[C@H](CCCNC(=N)N)NC(=O)[C@@H](N)Cc1ccccc1)C(C)C)C(=O)N[C@@H](Cc1ccccc1)C(=O)N[C@@H](CCC(N)=O)C(=O)N[C@@H](CO)C(=O)N1CCC[C@H]1C(=O)N[C@@H](Cc1ccccc1)C(=O)N[C@@H](C)C(=O)N[C@@H](CO)C(=O)N[C@@H](CCC(N)=O)C(=O)N[C@@H](CO)C(=O)N[C@@H](CCCNC(=N)N)C(=O)NCC(=O)N[C@@H](Cc1ccc(O)cc1)C(=O)N[C@@H](Cc1ccccc1)C(=O)N[C@@H](CC(C)C)C(=O)N[C@@H](Cc1ccccc1)C(=O)N[C@@H](CCCNC(=N)N)C(=O)N1CCC[C@H]1C(=O)N[C@@H](CCCNC(=N)N)C(=O)N[C@@H](CC(N)=O)C(N)=O)C(=O)O [SEQ ID NO 14] (H-FRVDEK([γGlu-Palmitoyl])FQSPFASQSRGYFLFRPRN-NH2)
